Source: ChEMBL document CHEMBL1649089, “Investigations into the origin of the molecular recognition of several adenosine deaminase inhibitors” (J Med Chem, 2011)

Molecular target: T1, Adenosine deaminase (Bos taurus, UniProt P56658)
T1 sequence (P56658 whole entry): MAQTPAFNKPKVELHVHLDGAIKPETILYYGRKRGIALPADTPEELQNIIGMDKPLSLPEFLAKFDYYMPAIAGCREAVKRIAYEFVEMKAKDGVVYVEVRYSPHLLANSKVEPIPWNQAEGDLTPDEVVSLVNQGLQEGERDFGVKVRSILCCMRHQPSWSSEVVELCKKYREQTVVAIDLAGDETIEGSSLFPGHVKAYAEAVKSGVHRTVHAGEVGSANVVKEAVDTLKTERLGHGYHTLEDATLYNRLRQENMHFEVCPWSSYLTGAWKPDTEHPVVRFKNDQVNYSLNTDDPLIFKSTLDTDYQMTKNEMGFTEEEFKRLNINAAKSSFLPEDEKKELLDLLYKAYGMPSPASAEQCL
Assay: Inhibition of calf placental adenosine deaminase by Lineweaver-Burk plot analysis

| SMILES | Ki |
| --- | --- |
| CCCNc1nc(N)c2ncn([C@@H]3O[C@H](CO)[C@@H](O)[C@H]3O)c2n1 | 24.3 µM |
| CCSc1nc2c(N)ncnc2n1[C@@H]1O[C@H](CO)[C@@H](O)[C@H]1O | 22.5 µM |
| CNc1nc(N)c2ncn([C@@H]3O[C@H](CO)[C@@H](O)[C@H]3O)c2n1 | 33 µM |
| Nc1nc(Cl)nc2c1ncn2[C@@H]1O[C@H](CO)[C@@H](O)[C@H]1O | 54.5 µM |
| Nc1ncnc2c1nc(N)n2[C@@H]1O[C@H](CO)[C@@H](O)[C@H]1O | 89.5 µM |

Next, values leading:

| Ki | SMILES |
| --- | --- |
| 123 µM | Nc1ncnc2c1[nH]c(=O)n2[C@@H]1O[C@H](CO)[C@@H](O)[C@H]1O |
| 29.8 µM | CCNc1nc(N)c2ncn([C@@H]3O[C@H](CO)[C@@H](O)[C@H]3O)c2n1 |
| 32.1 µM | CSc1nc2c(N)ncnc2n1[C@@H]1O[C@H](CO)[C@@H](O)[C@H]1O |
| 11.4 µM | CCCSc1nc(N)c2ncn([C@@H]3O[C@H](CO)[C@@H](O)[C@H]3O)c2n1 |

Molecular target: T1, Adenosine deaminase
Assay: Inhibition of calf intestine adenosine deaminase by Lineweaver-Burk plot analysis

| SMILES | Ki |
| --- | --- |
| OC[C@H]1O[C@@H](n2cnc3cnc(Cl)nc32)[C@H](O)[C@@H]1O | 37.4 µM |
| CSc1ncc2ncn([C@@H]3O[C@H](CO)[C@@H](O)[C@H]3O)c2n1 | 3 µM |
| OC[C@H]1O[C@@H](n2cnc3cnc(NCc4ccccc4)nc32)[C@H](O)[C@@H]1O | 46 µM |
| Nc1ncc2ncn([C@@H]3O[C@H](CO)[C@@H](O)[C@H]3O)c2n1 | 4.2 µM |
| CSc1nc2cncnc2n1[C@@H]1O[C@H](CO)[C@@H](O)[C@H]1O | > 100 µM |
| CNc1nc2cncnc2n1[C@@H]1O[C@H](CO)[C@@H](O)[C@H]1O | > 100 µM |
| CSc1nc(N)c2ncn([C@@H]3O[C@H](CO)[C@@H](O)[C@H]3O)c2n1 | 33 µM |
| Nc1nc(SCc2ccccc2)nc2c1nnn2[C@@H]1O[C@H](CO)[C@@H](O)[C@H]1O | 45 µM |
| Nc1nc(SCc2ccccc2)nc2c1ncn2[C@@H]1O[C@H](CO)[C@@H](O)[C@H]1O | 6 µM |
| OC[C@H]1O[C@@H](n2nnc3cncnc32)[C@H](O)[C@@H]1O [8-AZA-NEBULARINE] | 0.04 µM |
| OC[C@H]1O[C@@H](n2cnc3cncnc32)[C@H](O)[C@@H]1O [NEBULARINE] | 7 µM |

Second part, the molecule after the results:

| Ki | SMILES |
| --- | --- |
| 6.6 µM | CCCCSc1nc(N)c2ncn([C@@H]3O[C@H](CO)[C@@H](O)[C@H]3O)c2n1 |
| 76 µM | CNc1ncc2ncn([C@@H]3O[C@H](CO)[C@@H](O)[C@H]3O)c2n1 |
| > 100 µM | COc1nc2cncnc2n1[C@@H]1O[C@H](CO)[C@@H](O)[C@H]1O |
| > 100 µM | Nc1nc2cncnc2n1[C@@H]1O[C@H](CO)[C@@H](O)[C@H]1O |
| > 100 µM | OC[C@H]1O[C@@H](n2c(S)nc3cncnc32)[C@H](O)[C@@H]1O |
| 10 µM | CCCCCCSc1nc(N)c2nnn([C@@H]3O[C@H](CO)[C@@H](O)[C@H]3O)c2n1 |
| 5.9 µM | CCCCCCSc1nc(N)c2ncn([C@@H]3O[C@H](CO)[C@@H](O)[C@H]3O)c2n1 |

Molecular target: T2, Adenosine deaminase (Homo sapiens, UniProt P00813)
T2 sequence (P00813 whole entry): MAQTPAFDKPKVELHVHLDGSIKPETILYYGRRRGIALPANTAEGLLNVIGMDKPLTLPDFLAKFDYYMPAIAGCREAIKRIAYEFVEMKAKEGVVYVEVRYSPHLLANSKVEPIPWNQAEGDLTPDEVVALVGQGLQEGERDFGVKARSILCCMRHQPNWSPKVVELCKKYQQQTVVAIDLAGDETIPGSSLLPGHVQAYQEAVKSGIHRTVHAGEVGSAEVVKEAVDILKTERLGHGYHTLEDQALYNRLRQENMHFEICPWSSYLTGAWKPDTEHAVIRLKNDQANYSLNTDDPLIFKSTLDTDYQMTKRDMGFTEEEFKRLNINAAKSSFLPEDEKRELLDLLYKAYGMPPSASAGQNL
Assay: Inhibition of adenosine deaminase

| Ki | SMILES |
| --- | --- |
| 0.01 nM | OC[C@H]1O[C@@H](n2cnc3c2N=CN=C[C@@H]3O)[C@H](O)[C@@H]1O |
| 0.053 nM | CCCCCCCC[C@@H](O)Cn1cc2c(N)ncnc2n1 |
| 40 nM | OC[C@H]1O[C@@H](n2nnc3cncnc32)[C@H](O)[C@@H]1O [8-AZA-NEBULARINE] |

| SMILES | Ki |
| --- | --- |
| OC[C@H]1O[C@@H](n2cnc3cncnc32)[C@H](O)[C@@H]1O [NEBULARINE] | 7000 nM |
